The record followed here is ChEMBL document CHEMBL5346910, “N-sulfonyl peptide-hybrids as a new class of dengue virus protease inhibitors” (Eur J Med Chem, 2023).

pIC50: −log10 of the molar value.

One data set deals with Trypsin (Homo sapiens, UniProt P07477+P07478+P35030). The experiment in a line: Inhibition of trypsin (unknown origin) at 50 uM by biochemical assay relative to control. Format: protein assay.
In data set [1] the target is Genome polyprotein (West Nile virus) (UniProt P06935). The experiment in a line: Inhibition of West Nile virus NS2B-NS3 protease at 50 uM by biochemical enzymatic assay relative to control.
Chain of Genome polyprotein (West Nile virus) (P06935 whole entry): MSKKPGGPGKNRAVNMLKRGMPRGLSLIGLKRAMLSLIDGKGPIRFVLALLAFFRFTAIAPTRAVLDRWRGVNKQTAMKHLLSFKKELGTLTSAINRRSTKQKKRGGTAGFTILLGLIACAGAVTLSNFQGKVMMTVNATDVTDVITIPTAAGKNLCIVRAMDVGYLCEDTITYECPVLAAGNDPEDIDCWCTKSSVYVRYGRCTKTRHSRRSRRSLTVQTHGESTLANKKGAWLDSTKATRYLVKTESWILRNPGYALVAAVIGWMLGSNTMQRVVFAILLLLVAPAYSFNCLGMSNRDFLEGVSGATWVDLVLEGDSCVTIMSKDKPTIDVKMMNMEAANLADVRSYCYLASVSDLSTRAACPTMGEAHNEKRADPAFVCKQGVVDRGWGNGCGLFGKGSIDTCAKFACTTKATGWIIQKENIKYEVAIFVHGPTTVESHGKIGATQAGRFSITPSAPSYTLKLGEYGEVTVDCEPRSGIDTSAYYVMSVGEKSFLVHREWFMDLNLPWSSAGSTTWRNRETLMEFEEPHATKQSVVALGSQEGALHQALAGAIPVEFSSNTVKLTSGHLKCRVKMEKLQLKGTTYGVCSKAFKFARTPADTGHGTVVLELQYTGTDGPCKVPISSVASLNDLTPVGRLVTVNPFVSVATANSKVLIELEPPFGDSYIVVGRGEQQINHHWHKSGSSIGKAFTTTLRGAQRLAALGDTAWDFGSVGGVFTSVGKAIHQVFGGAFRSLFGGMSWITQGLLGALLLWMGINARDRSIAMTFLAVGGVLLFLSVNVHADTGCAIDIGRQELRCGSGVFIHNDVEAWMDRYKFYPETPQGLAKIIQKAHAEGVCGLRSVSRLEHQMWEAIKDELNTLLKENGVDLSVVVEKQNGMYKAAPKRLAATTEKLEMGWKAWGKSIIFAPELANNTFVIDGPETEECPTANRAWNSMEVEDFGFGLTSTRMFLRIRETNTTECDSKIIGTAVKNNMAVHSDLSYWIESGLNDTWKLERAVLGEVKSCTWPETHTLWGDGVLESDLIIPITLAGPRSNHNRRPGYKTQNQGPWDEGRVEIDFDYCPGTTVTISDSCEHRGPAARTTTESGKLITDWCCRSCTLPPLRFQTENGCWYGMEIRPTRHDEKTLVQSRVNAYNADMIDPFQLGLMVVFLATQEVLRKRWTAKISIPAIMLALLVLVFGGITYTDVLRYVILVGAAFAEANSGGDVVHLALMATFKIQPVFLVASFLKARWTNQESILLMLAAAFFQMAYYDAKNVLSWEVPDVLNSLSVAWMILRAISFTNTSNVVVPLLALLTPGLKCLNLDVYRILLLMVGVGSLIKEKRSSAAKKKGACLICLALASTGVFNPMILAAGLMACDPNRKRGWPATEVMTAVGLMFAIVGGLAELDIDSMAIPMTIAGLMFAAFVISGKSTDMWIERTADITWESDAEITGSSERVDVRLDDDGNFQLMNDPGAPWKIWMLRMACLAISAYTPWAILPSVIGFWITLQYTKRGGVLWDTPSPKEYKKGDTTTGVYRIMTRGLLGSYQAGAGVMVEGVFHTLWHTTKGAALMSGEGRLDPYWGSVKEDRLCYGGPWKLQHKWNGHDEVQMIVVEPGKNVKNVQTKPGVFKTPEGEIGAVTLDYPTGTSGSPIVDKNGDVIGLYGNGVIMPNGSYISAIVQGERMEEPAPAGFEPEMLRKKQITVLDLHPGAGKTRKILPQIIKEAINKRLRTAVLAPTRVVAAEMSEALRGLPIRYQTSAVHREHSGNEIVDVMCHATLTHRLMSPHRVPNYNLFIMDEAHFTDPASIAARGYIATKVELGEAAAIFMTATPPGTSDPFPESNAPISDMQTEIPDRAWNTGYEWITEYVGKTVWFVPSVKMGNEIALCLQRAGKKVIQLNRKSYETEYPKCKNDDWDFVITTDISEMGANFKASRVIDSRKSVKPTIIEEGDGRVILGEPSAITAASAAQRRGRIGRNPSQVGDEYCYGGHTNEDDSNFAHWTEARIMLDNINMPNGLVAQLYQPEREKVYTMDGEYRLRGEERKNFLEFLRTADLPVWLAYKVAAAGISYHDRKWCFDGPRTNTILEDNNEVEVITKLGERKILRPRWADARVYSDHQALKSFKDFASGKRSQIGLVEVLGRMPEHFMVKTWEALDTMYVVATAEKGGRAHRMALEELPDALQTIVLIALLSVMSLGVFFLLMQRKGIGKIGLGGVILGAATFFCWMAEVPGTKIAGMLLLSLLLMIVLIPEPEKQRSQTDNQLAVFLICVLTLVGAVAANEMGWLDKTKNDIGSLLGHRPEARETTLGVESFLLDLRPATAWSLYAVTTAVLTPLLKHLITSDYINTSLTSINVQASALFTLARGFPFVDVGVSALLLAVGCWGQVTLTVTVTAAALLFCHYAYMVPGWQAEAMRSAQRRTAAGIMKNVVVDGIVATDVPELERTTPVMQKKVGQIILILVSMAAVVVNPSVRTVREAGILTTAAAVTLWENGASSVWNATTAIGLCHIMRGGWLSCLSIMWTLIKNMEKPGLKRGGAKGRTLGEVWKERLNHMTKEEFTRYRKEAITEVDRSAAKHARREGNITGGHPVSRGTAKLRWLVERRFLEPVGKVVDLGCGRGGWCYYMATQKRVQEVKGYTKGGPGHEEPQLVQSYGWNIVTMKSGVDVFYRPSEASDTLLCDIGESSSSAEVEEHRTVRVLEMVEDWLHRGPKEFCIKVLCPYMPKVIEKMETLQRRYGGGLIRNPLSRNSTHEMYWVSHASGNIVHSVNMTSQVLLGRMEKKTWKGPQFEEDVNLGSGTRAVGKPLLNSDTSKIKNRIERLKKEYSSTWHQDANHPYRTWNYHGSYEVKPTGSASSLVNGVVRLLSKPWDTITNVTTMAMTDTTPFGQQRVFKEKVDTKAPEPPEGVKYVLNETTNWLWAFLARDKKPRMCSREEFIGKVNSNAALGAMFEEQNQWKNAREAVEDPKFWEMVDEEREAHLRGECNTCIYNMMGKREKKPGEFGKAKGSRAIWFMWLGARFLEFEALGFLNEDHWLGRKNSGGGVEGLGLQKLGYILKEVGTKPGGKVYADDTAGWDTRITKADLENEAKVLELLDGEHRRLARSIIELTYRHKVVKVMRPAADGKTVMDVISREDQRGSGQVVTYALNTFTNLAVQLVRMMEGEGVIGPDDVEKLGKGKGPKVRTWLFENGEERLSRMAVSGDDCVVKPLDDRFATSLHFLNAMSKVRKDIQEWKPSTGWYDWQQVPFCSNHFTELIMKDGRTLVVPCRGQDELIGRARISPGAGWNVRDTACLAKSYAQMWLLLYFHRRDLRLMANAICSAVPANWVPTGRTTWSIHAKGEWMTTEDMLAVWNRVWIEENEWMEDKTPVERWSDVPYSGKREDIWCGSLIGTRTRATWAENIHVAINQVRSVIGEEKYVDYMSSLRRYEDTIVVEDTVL
In data set [2] the target is Genome polyprotein (dengue virus type 2) (UniProt P29990). The experiment in a line: Inhibition of DENV-2 NS2B-NS3 protease at 50 uM by biochemical enzymatic assay relative to control.
In a further data set the target is Genome polyprotein (dengue virus type 2, UniProt P29990). Description: Inhibition of DENV-2 NS2B-NS3 protease by biochemical enzymatic assay.
The target in data set [3] is Prothrombin (Homo sapiens) (UniProt P00734). The experiment in a line: Inhibition of Thrombin (unknown origin) at 25 uM by biochemical assay relative to control.
A short description of data set [4]: Cytotoxicity against human HeLa cells by CellTiter-Blue assay. Format: toxicity, cell-based. (In general: The colour change of resazurin is a common sign of viable cells or microbes.)

On to `CN([C@@H](Cc1ccc(C(=N)N)cc1)C(=O)N[C@@H](CCCCN)C(=O)N[C@@H](C(N)=O)c1ccc(O)cc1)S(=O)(=O)c1ccccc1`, for which the inhibition turned out to be 14.7% at Trypsin, 33.7% in data set [1], 101% in data set [2] and 30.3% in data set [3]. This molecule also gave a pIC50 at Genome polyprotein of 6.36.
In the case of `CN(C)c1cccc2c(S(=O)(=O)N[C@@H](CCCNC(=N)N)C(=O)N[C@@H](CCCCN)C(=O)N[C@@H](C(N)=O)c3ccccc3)cccc12`, the inhibition on Trypsin was 10.7%; in data set [1], under 10%; in data set [2] it was 35.3%; in data set [3], 2.3%. In data set [4], this molecule yielded a CC50 of over 50 µM.
For the molecule `CN(C)C(=O)COC(=O)Cc1ccc(OC(=O)c2ccc(NC(=N)N)cc2)cc1`, the inhibition in data set [3] was found to be 99%.
`Cc1ccc(S(=O)(=O)N(C)[C@@H](Cc2cccc(N)c2)C(=O)N[C@@H](CCCCN)C(=O)N[C@@H](C(N)=O)c2ccccc2)cc1`: the inhibition was under 10% on Trypsin, under 10% in data set [1], 23.2% in data set [2] and under 10% in data set [3].
With `CN([C@@H](Cc1cccc(N)c1)C(=O)N[C@@H](CCCCN)C(=O)N[C@@H](C(N)=O)c1ccccc1)S(=O)(=O)c1ccccc1`, the inhibition is under 10% against Trypsin, under 10% in data set [1], 20.4% in data set [2] and under 10% in data set [3].
Take `Cc1ccc(S(=O)(=O)N[C@@H](CCCNC(=N)N)C(=O)N[C@@H](CCCCN)C(=O)N[C@@H](C(N)=O)c2ccccc2)cc1`: the inhibition is 21.6% against Trypsin, 17.7% in data set [1], 50.5% in data set [2] and under 10% in data set [3]. Also, the CC50 in data set [4] was over 50 µM.
For `N=C(N)NCCC[C@H](NS(=O)(=O)C1CCCCC1)C(=O)N[C@@H](CCCCN)C(=O)N[C@@H](C(N)=O)c1ccccc1`, the inhibition on Trypsin is 17.4%; in data set [1], under 10%; in data set [2] it was 65.2%; in data set [3], under 10%. This molecule also registered a CC50 in data set [4] of over 50 µM.
On to `Cc1cc(C)c(S(=O)(=O)N[C@@H](CCCNC(=N)N)C(=O)N[C@@H](CCCCN)C(=O)N[C@@H](C(N)=O)c2ccccc2)c(C)c1`, for which the inhibition against Trypsin is under 10%; in data set [1], under 10%; in data set [2], 35.9%; in data set [3] it was under 10%. For the same molecule, in data set [4], the CC50 was over 50 µM.
Take `CC(C)c1cc(C(C)C)c(S(=O)(=O)N[C@@H](CCCNC(=N)N)C(=O)N[C@@H](CCCCN)C(=O)N[C@@H](C(N)=O)c2ccccc2)c(C(C)C)c1`: the inhibition against Trypsin is under 10%; in data set [1], under 10%; in data set [2], 20.2%; in data set [3], under 10%. The CC50 in data set [4] was over 50 µM.
For `N=C(N)NCCC[C@H](NC(=O)c1ccccc1)C(=O)N[C@@H](CCCCN)C(=O)N[C@@H](C(N)=O)c1ccc(OCc2ccccc2)cc1`, the inhibition in data set [3] is under 10%. In data set [4], the CC50 is over 50 µM.
In the case of `N=C(N)NCCC[C@H](NS(=O)(=O)c1ccc([N+](=O)[O-])cc1)C(=O)N[C@@H](CCCCN)C(=O)N[C@@H](C(N)=O)c1ccccc1`, the inhibition is 30.6% on Trypsin, 18.4% in data set [1], 24.7% in data set [2] and under 10% in data set [3]. In addition, the CC50 in data set [4] is over 50 µM.
Consider `CN([C@@H](Cc1ccc(/C(N)=N/O)cc1)C(=O)N[C@@H](CCCCN)C(=O)N[C@@H](C(N)=O)c1ccccc1)S(=O)(=O)c1ccccc1`, for which the inhibition was under 10% on Trypsin, under 10% in data set [1], 58.5% in data set [2] and under 10% in data set [3]. The molecule also displayed a CC50 in data set [4] of over 50 µM.
Turning to `N=C(N)NCCC[C@H](NS(=O)(=O)c1ccc(Cl)cc1)C(=O)N[C@@H](CCCCN)C(=O)N[C@@H](C(N)=O)c1ccccc1`, the inhibition is under 10% on Trypsin, 15.5% in data set [1], 44.5% in data set [2] and under 10% in data set [3]. Moreover, the CC50 in data set [4] is over 50 µM.

A word on the inhibition: it is the drop in the measured response relative to a control, in per cent. As a reminder, the pIC50 is the negative decadic logarithm of the IC50, by convention in mol/L. In general, CC50 refers to the concentration at which the toxic effect on the cells reaches its halfway point. A high value points to better tolerance by the cells.
